According to patent publication US20240252658A1, “BIFUNCTIONAL PROTAC-TYPE COMPOUNDS TARGETING PXR, METHOD FOR PREPARING SAME AND THERAPEUTIC USE THEREOF” (Centre National de la Recherche Scientifique, priority 2021, published 2024):

What was measured:
[1] = biological target: T1, PXR ligand binding domain (LBD) (Homo sapiens, UniProt O75469); assay: LanthaScreen TR-FRET PXR competitive binding assay; settings: displacement of fluorescent reference ligand, 1:30 hours at room temperature, read-out: affinity for PXR
T1 construct: purchased Invitrogen
T1 sequence (O75469 146-433 limits assumed): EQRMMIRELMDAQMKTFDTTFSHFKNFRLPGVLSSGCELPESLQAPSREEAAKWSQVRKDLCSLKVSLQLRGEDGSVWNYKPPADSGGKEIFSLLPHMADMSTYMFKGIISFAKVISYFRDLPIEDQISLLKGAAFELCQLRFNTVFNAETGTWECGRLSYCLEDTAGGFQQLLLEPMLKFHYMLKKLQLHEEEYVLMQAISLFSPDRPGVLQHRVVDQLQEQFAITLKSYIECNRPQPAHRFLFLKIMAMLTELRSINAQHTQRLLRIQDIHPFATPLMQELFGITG
Method: The molecules were incubated for 1:30 hours at room temperature with the PXR LBD in the presence of a fluorescent reference ligand. The displacement of the fluorescent ligand caused by the prePROTAC or the PXR SR12813 ligand was measured by reading emissions at 520 nm and 495 nm after excitation at 337 nm on a PHERA-Star apparatus (BMG LABTECH).

PXR [2] = assay: CYP3A4 mRNA expression by RT-qPCR in LS174T cells; format: cell-based; settings: 5 μM, 48 h, with rifampicin 5 μM
Method: . After lysis of the cells and purification of the total RNAs (Qiagen RNAeasy), the complementary DNAs were prepared (SuperScript II in the presence of random primers of 6 nucleotides, Invitrogen). The expression of CYP3A4 mRNA and RPLO and actin housekeeping genes was measured by RT-qPCR on an LC480 apparatus (Roche) in the presence of SyberGreen (Millipore). The relative expression levels were calculated according to the RQ=Relative quantification=2-ΔΔCt method, the untreated cells serving as a calibrator set to 1. […]

HT29 cells [3] = assay: Cell viability, Sulforhodamine B, HT29; format: cell-based; settings: increasing concentrations, 72 h
Method: (§1) The effect of PROTACs on cell viability has been tested on various lines CRC1, HT29 and LS174T. The cells were incubated in the presence of increasing concentrations of molecules for 72 h before being fixed and marked by Sulforhodamine B (Sigma). After washing and lysis of the cells, the incorporated colorant released by the cells is directly proportional to the cell biomass. It is measured at […] by a 96-well plate spectrophotometer (Tecan). The signal obtained for the untreated cells is set at 100%.

CRC1 = assay: Cell viability, Sulforhodamine B, CRC1; format: cell-based; settings: CRC1 protoculture, increasing concentrations, 72 h
Method: as §1

PXR protein [4] = biological target: T2, PXR protein (Homo sapiens, UniProt O75469); assay: Importance of the proteasome pathway for PXR degradation, western blotting in LS174T cells; format: cell-based; set-up: endogenous in cells; host or cells: LS174T; settings: 24 hours
T2 sequence (O75469 1-434): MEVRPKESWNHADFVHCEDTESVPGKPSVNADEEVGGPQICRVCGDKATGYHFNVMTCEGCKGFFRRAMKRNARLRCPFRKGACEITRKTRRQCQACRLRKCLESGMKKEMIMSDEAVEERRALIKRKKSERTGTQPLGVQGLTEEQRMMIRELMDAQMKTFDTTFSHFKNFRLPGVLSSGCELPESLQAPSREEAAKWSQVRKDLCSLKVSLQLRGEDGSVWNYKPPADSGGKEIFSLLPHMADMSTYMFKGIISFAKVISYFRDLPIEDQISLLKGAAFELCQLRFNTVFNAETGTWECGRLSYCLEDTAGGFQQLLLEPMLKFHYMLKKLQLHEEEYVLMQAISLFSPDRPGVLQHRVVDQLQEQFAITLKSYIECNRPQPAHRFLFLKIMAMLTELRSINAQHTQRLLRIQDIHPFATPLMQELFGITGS
Method: The involvement of the proteasome pathway in the effects of PROTACs on the expression level of the PXR protein was studied by western blotting. The LS174T cells were treated for 24 hours with JMV7048 in the presence or absence of the […] (MLN4924) or the proteasome inhibitor (Bortezomib).

PXR [5] = assay: CYP3A4 protein expression by western blotting in LS174T cells; format: cell-based; set-up: dose or concentration left out as unconfirmed; settings: 48 h
Method: The LS174T cells were treated for 48 h with […] JMV7048 in the presence or absence of rifampicin (PXR ligand) at […] final. After lysis of the cells (RIPA+antiproteases), the proteins were purified and assayed before being deposited (90 μg) on 10% SDS-PAGE gel. […] The intensities of the signals were measured by a camera (BioRad MP Touch).

HT29 cells [6] = assay: Tumorsphere formation (Sphere Forming Cells), HT29; format: cell-based; settings: 5 μM, 48 h, spheres counted after 10 days
Method: (§2) The effects of the PROTACs on the survival and self-renewal of colic cancer stem cells were studied in vitro on the HT29 line or cancer cells isolated from patients (CRC1). The cells were treated with or without 5 μM PROTACs for 48 h before being analyzed: Aldefluor marking, enzymatic activity preferentially present in cancer stem cells (FIG. 10A); formation of tumorspheres under aseric and non-adherent conditions (FIG. 10B), and finally resistance to chemotherapy (FIGS. […] and 10D).
(§3) The tumorspheres with a diameter of more than 50 μM were counted 10 days after treatment and culturing of 200 cells per well (previously treated with poly2Hema in order to prevent any cell adhesion) in 100 μL of depleted BCS medium. These culture conditions allow only the survival of cancer stem cells. FIGS. 10C and 10D show the effects of the PROTACs JMV7048 and JMV7965 on survival (10C) and the ability to form tumorspheres (10D) of the HT29 cells maintained in the presence of different concentrations of 5-FU and SN38 (Folfiri 1X=50 μg 5-FU+500 nM SN38) and cultured in 100 μL of depleted BCS medium in dishes pretreated with poly2Hema in order to prevent any cell adhesion. The tumorspheres with a diameter of more than 50 μM were counted 10 days after seeding 200 cells/well.

LS174T = assay: Cell viability, Sulforhodamine B, LS174T; format: cell-based; settings: LS174T line, increasing concentrations, 72 h
Method: as §1

PXR protein [7] = biological target: T2, PXR protein; assay: PXR degradation in LS174T cells by in vitro western blotting; format: cell-based; set-up: endogenous in cells; host or cells: LS174T; settings: for expression level of the PXR protein: 5 μM, 24 h of treatment
Method: The effect of the PROTACs on the expression level of the PXR protein was studied by western blotting. The LS174T cells were […] in the absence or presence of 50 nM of an siRNA targeting PXR (siPXR: NR112 Silencer, Thermofischer) or treated by the PROTACs. After lysis of the cells (RIPA+antiproteases), the proteins were purified and assayed before being deposited ([…]) on 10% SDS-PAGE gel. […] The intensities of the signals were measured by a camera (BioRad MP Touch). […] FIGS. 6D and 6E illustrate the effect of JMV7048 on the expression level of PXR based on the treatment time (maximum effect reached after 3 h of treatment) and the concentration used (decrease dependent on the dose, with a maximum effect observed from 500 nM).

CRC1 cells = assay: Aldefluor marking of cancer stem cells, CRC1; format: cell-based; settings: 5 μM, 48 h, compared to untreated cells
Method: as §2, §3

HT29 cells [8] = assay: Survival and chemoresistance of cancer stem cells in colon cancer cell lines; format: cell-based; settings: 5 μM for 2 days, 5-FU and SN38 (Folfiri)
Method: as §2, §3

Row | SMILES | effect on expression of CYP3A4 mRNA induced by rifampicin (PXR [2]) | toxicity (cell viability) (LS174T) | expression level of the PXR protein (PXR protein [7]) | percentage of ALDH-positive cells (CRC1 cells) | further results
1 | Cc1cc(C)c(S(=O)(=O)Nc2ccc3c(c2)nc(CCCCCCCN)n3Cc2ccccc2)c(C)c1 [JMV6944, N-[2-(7-aminoheptyl)-1-benzyl-1H-1,3-benzodiazol-5-yl]-2,4,6-trimethylbenzene-1-sulfonamide] | additive effect on the expression of CYP3A4 mRNA |  |  |  | Kd [1]: 18.4 nM
2 | Cc1cc(C)c(S(=O)(=O)Nc2ccc3c(c2)nc(CCCCCCCNC(=O)CCCCCN2CCN(c4ccc5c(c4)C(=O)N(C4CCC(=O)NC4=O)C5=O)CC2)n3Cc2ccccc2)c(C)c1 (centres unmarked) [JMV7048] | significantly reduce the induction of CYP3A4 | absence of toxicity | significantly reduce the expression level of the PXR protein | significantly reduce the percentage of ALDH-positive cells | cell viability (HT29 cells [3]): does not affect the viability; cell viability (CRC1): does not affect the viability; decrease in PXR expression level with MLN4924 or Bortezomib (PXR protein [4]; with or without MLN4924 or Bortezomib): reverted by the CRBN ubiquitin ligase inhibitors (MLN4924, FIG. 8A) or by an inhibitor of the 26S proteasome; effect on induction of the CYP3A4 enzyme mediated by rifampicin (PXR [5]): reduce the induction of the CYP3A4 enzyme; number of cells capable of surviving anoikis and forming tumorspheres (Sphere Forming Cells) (HT29 cells [6]): significantly reduce the number of HT29 cells; treatment time at which maximum effect on PXR expression level is reached (PXR protein [7]): 3 h; concentration from which maximum effect on PXR expression level is observed (PXR protein [7]; decrease dependent on the dose): ≥ 500 nM; survival and chemoresistance of stem cells (HT29 cells [8]): significantly reduces the survival and chemoresistance of stem cells
3 | Cc1cc(C)c(S(=O)(=O)Nc2ccc3c(c2)nc(CCCCCCCNC(=O)CCCCCN2CCN(C4CCC5C(=O)N(C6CCC(=O)N(C)C6=O)C(=O)C5C4)CC2)n3Cc2ccccc2)c(C)c1 (centres unmarked) [JMV7159] | additive effect on the expression of CYP3A4 mRNA |  |  |  | expression level of the PXR protein (PXR protein [4]): does not cause a decrease in the expression level of PXR
4 | Cc1cc(C)c(S(=O)(=O)Nc2ccc3c(c2)nc(CCCCCCCNC(=O)CCCCCCN2CCN(c4ccc5c(c4)C(=O)N(C4CCC(=O)NC4=O)C5=O)CC2)n3Cc2ccccc2)c(C)c1 (centres unmarked) [JMV7505] |  | absence of toxicity | significantly reduce the expression level of the PXR protein | significantly reduce the percentage of ALDH-positive cells | 
5 | Cc1cc(C)c(S(=O)(=O)Nc2ccc3c(c2)nc(CCCCCCCNC(=O)CCCCCCCN2CCN(c4ccc5c(c4)C(=O)N(C4CCC(=O)NC4=O)C5=O)CC2)n3Cc2ccccc2)c(C)c1 (centres unmarked) [JMV7506] |  |  | significantly reduce the expression level of the PXR protein | significantly reduce the percentage of ALDH-positive cells | 
6 | Cc1cc(C)c(S(=O)(=O)Nc2ccc3c(c2)nc(CCCCCCCNC(=O)CCCCCCN2CCN(c4ccc(C(=O)NC5CCC(=O)NC5=O)cc4)CC2)n3Cc2ccccc2)c(C)c1 (centres unmarked) [JMV7605] |  | absence of toxicity | significantly reduce the expression level of the PXR protein |  | 
7 | Cc1cc(C)c(S(=O)(=O)Nc2ccc3c(c2)nc(CCCCCCCNC(=O)CN2CCC(CN4CCN(c5ccc6c(c5)C(=O)N(C5CCC(=O)NC5=O)C6=O)CC4)CC2)n3Cc2ccccc2)c(C)c1 (centres unmarked) [JMV7965] | significantly reduce the induction of CYP3A4 |  | significantly reduce the expression level of the PXR protein | significantly reduce the percentage of ALDH-positive cells | effect on induction of the CYP3A4 enzyme mediated by rifampicin (PXR [5]): reduce the induction of the CYP3A4 enzyme; number of cells capable of surviving anoikis and forming tumorspheres (Sphere Forming Cells) (HT29 cells [6]): significantly reduce the number of HT29 cells; survival and chemoresistance of stem cells (HT29 cells [8]): significantly reduces the survival and chemoresistance of stem cells
